Measured values: publication PMC9224751 (International Journal of Molecular Sciences, 2022)
Where two headings read alike, the source gives them in different places.

Experiments:
[1] = system: SARS-CoV-2 Wuhan type (SARS-CoV-2PR-1); assay: SARS-CoV-2 replication in Caco-2 cells, qRT-PCR; type: cell-based; conditions: Severe acute respiratory syndrome coronavirus 2, 3 dpi
SARS-CoV-2 Beta = assay: VoC replication in Calu-3 cells, qRT-PCR; type: cell-based; conditions: Severe acute respiratory syndrome coronavirus 2
[2] = system: SARS-CoV-2 Wuhan type (SARS-CoV-2PR-1); assay: Quantitative immunofluorescence of SARS-CoV-2 nucleoprotein (NP) in infected Calu-3 cells; type: cell-based; conditions: 30 h treatment, increasing concentrations
Procedure: In addition, and to confirm the results obtained from the qRT-PCR analysis of the cell culture supernatants, Calu-3 cells were infected with the wildtype isolate SARS-CoV-2PR-1 at the same MOI (Figure 1) and subsequently treated with different concentrations of PAM for 30 h. Cells were fixed and further stained with a SARS-CoV-2 nucleoprotein (NP)-specific antibody. RDV was used as a positive control at 1 µM (Figure S1, see Supplementary Materials).
For immunostaining, infected Calu-3 cells were fixed with 4% PFA for 15 min. Following a washing step with PBS, cells were blocked and permeabilized overnight with 1% BSA in PBS (+0.2% Triton) and afterwards stained with a polyclonal rabbit anti-NP antibody (GeneTex, Cat. No. GTX135357, Irvine, CA, USA) for 24 h. […] For analysis, immunostaining was quantitative analyzed with a PerkinElmer VictorX4 reader (488 nm) (PerkinElmer, Waltham, MA, USA) and pictures were taken using a CTL-ELISPOT reader (Cellular Technology Ltd., Shaker Heights, OH, USA).
Figure S1. […] Quantitative immunofluorescent microscopy was performed to detect the viral nucleocapsid protein in Calu-3 cells 30 hrs post-infection with SARS-CoV-2 Wuhan type using an Alexa488-conjugated anti-SARS-CoV-2 nucleo-protein (NP)-antibody or DAPI as a control. […]

SARS-CoV-2 Alpha = assay: VoC replication in Calu-3 cells, qRT-PCR; type: cell-based; conditions: Severe acute respiratory syndrome coronavirus 2
[3] = system: SARS-CoV-2 Wuhan type (SARS-CoV-2PR-1); assay: SARS-CoV-2 replication in Vero B4 cells, virions in supernatant by qRT-PCR; type: cell-based; conditions: for IC50: MOI 2 × 10^−2
Caco-2 cells = assay: WST-1 cell viability assay; conditions: uninfected Caco-2, three days
[4] = system: uninfected Vero B4, A549-ACE2/TMPRSS2+, Caco-2, or Calu-3 cells; assay: WST-1 cell viability assay, all cell types; type: cell-based; conditions: three days
Procedure: (§1) To control for potential unspecific effects of PAM treatment on cell viability, water-soluble tetrazolium salt (WST)-1 assays were performed in uninfected Vero B4, A549-ACE2/TMPRSS2+, Caco-2, or Calu-3 cells under otherwise identical conditions as the virus infection experiments. […] Staurosporine (StS) was used as a positive control at a concentration of 1 µM. DMSO as a solvent control was added in the same amount as the respective highest concentration of PAM.
(§2) Following treatment with different concentrations of PAM (PAM concentrations are indicated at the x-axis) for three days, the influence on cell viability was measured by water-soluble tetrazolium salt (WST)-1 assay. […] Staurosprine (StS, 1 µM) was used as a positive control. DMSO as solvent control was added in the same amount as in the highest concentration of PAM (100 µM (A,B); 1000 µM (C,D)).
(§3) Viability of uninfected and treated cells was assessed by the water-soluble tetrazolium salt (WST)-1 assay (Roche, Basel, Switzerland) according to the manufacturer’s instructions. Cells were treated for 72 h with various inhibitors according to the protocols of the infection experiments.

SARS-CoV-2 Delta = assay: VoC replication in Calu-3 cells, qRT-PCR; type: cell-based; conditions: for IC50 / IC90: Severe acute respiratory syndrome coronavirus 2, […]
SARS-CoV-2 Wuhan type = assay: SARS-CoV-2 replication, summary over Vero B4, A549-ACE2+/TMPRSS2+, Caco-2 and Calu-3 cells, qRT-PCR; type: cell-based; conditions: for IC90: Severe acute respiratory syndrome coronavirus 2, Wuhan type, Vero B4, A549-ACE2+/TMPRSS2+, Caco-2, Calu-3, read-out: IC90 values, range among all investigated cell lines
[5] = system: SARS-CoV-2 Wuhan Type, Delta, or Omicron; assay: Combination treatment in Calu-3 cells, summary over the three viruses, qRT-PCR; type: cell-based; conditions: single treatment
[6] = system: SARS-CoV-2 Omicron (SARS-CoV-2OM); assay: VoC replication in Calu-3 cells, qRT-PCR; type: cell-based
[7] = system: SARS-CoV-2 Wuhan type (SARS-CoV-2PR-1); assay: SARS-CoV-2 replication in Calu-3 cells, qRT-PCR; type: cell-based; conditions: for IC50 / IC90: Severe acute respiratory syndrome coronavirus 2, Calu-3, Wuhan type, 3 dpi
Calu-3 cells = assay: WST-1 cell viability assay; type: cell-based, human; conditions: uninfected Calu-3, three days
Procedure: as §1, §2, §3

[8] = system: SARS-CoV-2 Wuhan type (SARS-CoV-2PR-1); assay: SARS-CoV-2 replication in A549-ACE2+/TMPRSS2+ cells, qRT-PCR; type: cell-based; conditions: Severe acute respiratory syndrome coronavirus 2, 3 dpi
[9] = system: SARS-CoV-2 VoCs Alpha, Beta, Gamma, Delta, and Omicron; assay: VoC replication in Calu-3 cells, summary over all VoCs, qRT-PCR; type: cell-based; conditions: for IC90: Severe acute respiratory syndrome coronavirus 2, read-out: IC90, range over VoCs
SARS-CoV-2 Gamma = assay: VoC replication in Calu-3 cells, qRT-PCR; type: cell-based; conditions: Severe acute respiratory syndrome coronavirus 2
SARS-CoV-2 [10] = conditions: Vero E6 cells; published; cited from earlier work
SARS-CoV-2 [11] = conditions: Calu-3; published; cited from earlier work
[12] = set-up: method as in PMID 34580086; conditions: use of Pio, after a COVID-19 diagnosis, cited from earlier work
[13] = Severe acute respiratory syndrome coronavirus 2, Vero B4, Wuhan type, 3 dpi
[14] = Severe acute respiratory syndrome coronavirus 2, Calu-3, Calu-3, […]
[15] = Severe acute respiratory syndrome coronavirus 2, Calu-3

With `Cn1c(=O)c(Oc2ccc(F)cc2F)cc2cnc(NC(CCO)CCO)nc21` [PAM, Pamapimod] the IC50 [1] was roughly 250 nM, the IC90 [1] was roughly 3000 nM and the IC50 (SARS-CoV-2 Beta) was roughly 250 nM. The IC90 (SARS-CoV-2 Beta) was roughly 3000 nM, the “SARS-CoV-2 replication within infected cells (NP staining normalized to DAPI)” value [2] was “effectively suppressed SARS-CoV-2 replication in a dose-dependent manner” and the IC50 (SARS-CoV-2 Alpha) was roughly 250 nM. For the same compound, the IC90 (SARS-CoV-2 Alpha) was roughly 3000 nM, the IC90 ([3]; Severe acute respiratory syndrome coronavirus 2, Vero B4, Wuhan type, 3 dpi, read-out: IC90) was roughly 2000 nM and the IC50 [3, 13] was roughly 200 nM. The TD50 (Caco-2 cells) was ~ 1000 µM, the “impact on cell viability” value ([4]; concentrations up to 100 µg/mL) was “no impact on cell viability” and the inhibition at 0.01 µM (SARS-CoV-2 Delta; Severe acute respiratory syndrome coronavirus 2, PAM 0.01 µM, Pio 0 µM, Fig 7D) was 2.86%. It also gave an inhibition at 0.05 µM (SARS-CoV-2 Delta; Severe acute respiratory syndrome coronavirus 2, PAM 0.05 µM, Pio 0 µM, Fig 7D) of 27.6%, an IC50 (SARS-CoV-2 Delta) of roughly 250 nM and an IC90 (SARS-CoV-2 Delta) of roughly 4000 nM. The IC90 (SARS-CoV-2 Wuhan type) was 2000 to 3000 nM, the “production of progeny virions” value (SARS-CoV-2 Wuhan type; at a concentration of 6.25 µM, all infected cell lines) was “almost completely blocked” and the “reduction of virus replication, max.” value ([5]; 50 nM PAM, Figure 7B) was no more than 33%. The IC90 ([6]; Calu-3, […]) was roughly 3000 nM, the IC50 [6, 14] was roughly 250 nM and the IC90 [6, 14] was roughly 2000 nM. For the same compound, the inhibition at 0.01 µM ([6]; Severe acute respiratory syndrome coronavirus 2, PAM 0.01 µM, Pio 0 µM, Calu-3, Fig 7F) was 3.6%, the inhibition at 0.05 µM ([6]; Severe acute respiratory syndrome coronavirus 2, PAM 0.05 µM, Pio 0 µM, Calu-3, Fig 7F) was 28.6% and the inhibition at 0.01 µM [7, 15] was 10.5%. The inhibition at 0.05 µM [7, 15] was 33.9%, the IC50 [7] was roughly 100 nM and the IC90 [7] was roughly 3000 nM. The TD50 (Calu-3 cells) was ~ 1000 µM, the IC50 [8] was roughly 200 nM and the IC90 [8] was roughly 2000 nM. For the same compound, the IC50 ([9]; Severe acute respiratory syndrome coronavirus 2) was roughly 250 nM, the IC90 [9] was 3000 to 4000 nM and the IC50 (SARS-CoV-2 Gamma) was roughly 250 nM. The IC90 (SARS-CoV-2 Gamma) was roughly 3000 nM.
For `CCC(CC)COC(=O)[C@H](C)N[P@](=O)(OC[C@H]1O[C@@](C#N)(c2ccc3c(N)ncnn23)[C@H](O)[C@@H]1O)Oc1ccccc1` [Remdesivir], the IC90 (SARS-CoV-2 [10]) is given as 3000 nM and the IC90 (SARS-CoV-2 [11]) is given as 1280 nM.
Compound `CCc1ccc(CCOc2ccc(CC3SC(=O)NC3=O)cc2)nc1` (centres unmarked) [Pio, Pioglitazone] has an IC50 [1] of roughly 700 nM, an IC50 (SARS-CoV-2 Beta) of roughly 900 nM and an IC90 (SARS-CoV-2 Beta) of roughly 15000 nM. For the same compound, the hospital admissions ([12]; vs. 28.2% comparator) was 20.0%, the “RR of hospital admissions” value [12] was 0.71 and the IC50 (SARS-CoV-2 Alpha) was roughly 800 nM. For the same compound, the IC90 (SARS-CoV-2 Alpha) was roughly 15000 nM, the IC90 ([3]; Severe acute respiratory syndrome coronavirus 2, Vero) was roughly 8000 nM and the IC50 [3, 13] was roughly 500 nM. For the same compound, the TD50 (Caco-2 cells) was 500 to 1000 µM, the “impact on cell viability” value ([4]; concentrations up to ~80 µM) was “no impact on cell viability” and the inhibition at 0.02 µM (SARS-CoV-2 Delta; Severe acute respiratory syndrome coronavirus 2, PAM 0 µM, Pio 0.02 µM, Fig 7D) was 0.48%. For the same compound, the inhibition at 0.05 µM (SARS-CoV-2 Delta; Severe acute respiratory syndrome coronavirus 2, PAM 0 µM, Pio 0.05 µM, Fig 7D) was 12.2%, the inhibition at 0.1 µM (SARS-CoV-2 Delta; Severe acute respiratory syndrome coronavirus 2, PAM 0 µM, Pio 0.1 µM, Fig 7D) was 32.4% and the inhibition at 0.3 µM (SARS-CoV-2 Delta; Severe acute respiratory syndrome coronavirus 2, PAM 0 µM, Pio 0.3 µM, Fig 7D) was 46.9%. For the same compound, the IC50 (SARS-CoV-2 Delta) was roughly 500 nM, the IC90 (SARS-CoV-2 Delta) was roughly 12000 nM and the IC90 (SARS-CoV-2 Wuhan type) was 8000 to 10000 nM. The SARS-CoV-2 replication (SARS-CoV-2 Wuhan type; at ~80 µM, all test settings) was “completely suppresses”, the “reduction of viral replication, max.” value ([5]; 300 nM Pio, Figure 7D) was no more than 48% and the IC50 ([6]; Calu-3, […]) was roughly 700 nM. It also gave an IC50 [6, 14] of roughly 900 nM, an IC90 [6, 14] of roughly 10000 nM and an inhibition at 0.02 µM ([6]; Severe acute respiratory syndrome coronavirus 2, PAM 0 µM, Pio 0.02 µM, Calu-3, Fig 7F) of 1.44%. For the same compound, the inhibition at 0.05 µM ([6]; Severe acute respiratory syndrome coronavirus 2, PAM 0 µM, Pio 0.05 µM, Calu-3, Fig 7F) was 12.2%, the inhibition at 0.1 µM ([6]; Severe acute respiratory syndrome coronavirus 2, PAM 0 µM, Pio 0.1 µM, Calu-3, Fig 7F) was 27.1% and the inhibition at 0.3 µM ([6]; Severe acute respiratory syndrome coronavirus 2, PAM 0 µM, Pio 0.3 µM, Calu-3, Fig 7F) was 44%. It also gave an inhibition at 0.02 µM [7, 15] of 4.64%, an inhibition at 0.05 µM [7, 15] of 15.9% and an inhibition at 0.1 µM [7, 15] of 36.9%. For the same compound, the inhibition at 0.3 µM [7, 15] was 48.3%, the IC50 [7] was roughly 800 nM and the IC90 [7] was roughly 10000 nM. The TD50 (Calu-3 cells) was 500 to 1000 µM, the IC50 [8] was roughly 1000 nM and the IC90 [9] was 12000 to 15000 nM. The IC50 (SARS-CoV-2 Gamma) was roughly 700 nM and the IC90 (SARS-CoV-2 Gamma) was roughly 15000 nM.
